Source: patent US10562935B2, “Stapled peptides and uses thereof” (London Health Sciences Centre Research Inc., priority 2015, dated 2020)
Bridges are numbered along the chain shown (N, C = ends).

Experiments:
[1] = test system: NF-κB; assay: Inflammation assay: NF-κB inducible SEAP reporter in RAW-Blue macrophages stimulated with PAM3CSK4; assay type: cell-based, murine; details: for Inflammation (% Inhib.): % inhibition relative to positive control
Protocol: Compounds 132, 133, 135, 150, 152, 157-161, 265-269, 275, 277, and 278 were evaluated for their ability to inhibit inflammation. To determine the effect of the peptides on inflammation, commercially available murine RAW 264.7 macrophages carrying a secreted embryonic alkaline phosphatase (SEAP) reporter that is inducible by NF-κB (RAW-Blue; InvivoGen, San Diego, Calif., USA) were used. Cells were grown to 80% confluence in DMEM containing 4.5 g/L glucose, 10% heat-inactivated fetal bovine serum, 2 mM L-glutamine, 50 μg/mL penicillin/streptomycin, 100 μg/mL Normocin (InvivoGen) at 37° C. in 5% CO2. For peptide screening experiments, cells were scraped in growth medium, counted, and plated to flat-bottom 96-well plates at a density of 5×10^4 cells/well either in the presence or absence (control) of 200 ng/mL TLR1/TLR2 agonist PAM3CSK4 (InvivoGen). Peptides were added in 6 replicate wells at a dose of 10 ng/mL in the presence of PAM3CSK4. After 18 hours of stimulation, SEAP concentrations (indicating NF-κB activity) were measured in the supernatants collected from the RAW-Blue cells using QUANTI-BLUE reagent (InvivoGen). After 20 minutes of incubation at 37° C., SEAP levels were determined using spectrophotometry at a wavelength of 630 nm.
Values are the mean and SDM of n=3 replicates. *p<0.05 and ***p<0.001 compared to +PAM3. In FIGS. 44 and 45, where bars are labeled with two compound numbers (“133/150” and “135/152”) this means that the data were pooled for the indicated compounds, i.e., for the non-acetylated and acetylated versions of the indicated peptides.

[2] = Direct HA-binding ELISA of biotinylated peptides on HA coated plates (Example 4); parameters: key to HA binding: absorbance (color) read at 450 nm; details: for HA binding: as repeated in tables 16, 18, 20; for HA direct binding (OD): optical density, summary tables 15, 17, 19
Protocol: Each of these peptides was biotinylated at its amino-terminus, and an AEEA spacer was included to separate the peptide sequence from the biotin molecule.
HA coated plates were purchased (ECHELON). Peptides were dissolved in 2 mM PBS to constant molarity, aliquoted and stored at −20° C. until used in assays. 7 kDa biotin-labeled RHAMM (SEQ ID NO: 1) was synthesized and used as a positive control in these assays. Biotin labeled peptides were added to the HA coated wells (n=3 replicates/peptide) at either 0.8 or 0.08 μM and then incubated with shaking overnight at 4° C. Wells were washed free of excess unbound peptides using 200 μl PBS (4 times). 100 μl of Streptavidin-HRP was then added to each well and the plate was incubated at room temperature for 1 hr. The plate was then washed with 200 μl PBS/well 4 times and TMB Liquid Substrate System for ELISA (Sigma) was added to each well, incubated for 5-10 min at room temperature and color read at 450 nm Plate Reader (BioTek, SYNERGY H4, Hybrid Reader).
Direct HA-binding results for the biotinylated equivalents of compounds 132 and 150-161 are show in FIG. 39, and results for compounds 265-268 and 275-278 are shown in FIG. 40.

[3] = test system: RHAMM-overexpressing (LR21) cells; assay: Cell migration assay (Boyden chamber, Chemicon ECM510); assay type: cell-based; details: for Migration (% inhib.): % inhibition relative to positive control; for inhibition of cell migration (in words): 10 ng/mL peptide, 20 hours, compared to 30% serum control
Protocol: Compounds 132, 133, 150-152, 156-161, 265-269, 275, 277, and 278 were evaluated for their ability to inhibit cell migration. Cell migration assays were performed using Chemicon Assay Kits (ECM510 (Migration); Billerica, Mass., USA) according to the manufacturer's protocol. Briefly, sub-confluent cultures of RHAMM-overexpressing (LR21) cells were serum starved overnight. 7.5×10^4 cells were then plated in the upper chamber of a Boyden chamber. either in the presence or absence of 10 ng/mL of peptide. 30% fetal bovine serum in DMEM was used as the chemo-attractant in the lower chamber. The number of cells that had crossed the membrane after 20 hours was assessed using the CYQUANT GR Dye and lysis buffer solution provided in the kit. Fluorescence was measured with a fluorescent plate reader using a 480/520 nm filter set.
Values are the mean and SDM of n=3 replicates. *p<0.05, **p<0.01. All statistics compare to 30% serum control. In FIGS. 41-43, where bars are labeled with two compound numbers (“133/150” and “135/152”) this means that the data were pooled for the indicated compounds, i.e., for the non-acetylated and acetylated versions of the indicated peptides.

[4] = test system: RHAMM-overexpressing (LR21) cells; assay: Cell invasion assay (Boyden chamber with MATRIGEL, Chemicon ECM555); assay type: cell-based; details: for Invasion (% inhib.): % inhibition relative to positive control, 10 ng/mL of peptide
Protocol: Compounds 132, 133, 135, 150-153, 156, 265-269, and 275-278 were evaluated for their ability to inhibit cellular invasion. Invasion assays were performed using Chemicon Assay Kits ECM555 (Invasion); Billerica, Mass., USA) according to the manufacturer's protocol. Invasion assays are performed in an identical manner as the migration assays described above in Example 5, except that cells are required to invade through a layer of extracellular matrix (MATRIGEL) coating the filter that separates the upper and lower Boyden chambers. Briefly, sub-confluent cultures of RHAMM-overexpressing (LR21) cells were serum starved overnight before plating 7.5×10^4 cells in the upper chamber of a Boyden chamber either in the presence or absence of 10 ng/mL of peptide. 30% fetal bovine serum in DMEM was used as the chemo-attractant in the lower chamber. The number of cells that had crossed the membrane after 20 hours was assessed using the CYQUANT® GR Dye and lysis buffer solution provided in the kit. Fluorescence was measured with a fluorescent plate reader using 480/520 nm filter set.
Values the mean and SDM of n=3 replicates. *p<0.05, **p<0.01, ***p<0.001 All statistics compared to 30% serum control. In FIG. 49, where bars are labeled with two compound numbers (“152/135”) this means that the data were pooled for the indicated compound, i.e., for the non-acetylated and acetylated versions of the indicated peptide.

Row | Substance | HA binding [2] | HA direct binding (OD) [2] [OD] | Inflammation (% Inhib.) [1] [% Inhib.] | Migration (% inhib.) [3] [% inhib.] | inhibition of cell migration (in words) [3] | Invasion (% inhib.) [4] [% inhib.] | inhibition of cellular invasion (in words) ([4]; 10 ng/mL peptide, 20 hours, compared to 30% serum control) | inhibition of inflammation (SEAP / NF-κB activity, in words) ([1]; 10 ng/mL peptide with 200 ng/mL PAM3CSK4, 18 hours, compared to +PAM3)
1 | Ac-(cyclo-4,8)-NLK[EKIKK]VVKLKDE-NH2 (Ac-NLKEKIKKVVKLKDE-NH2; lactam 4-8; SMILES CC[C@H](C)[C@@H]1NC(=O)[C@H](CCCCN)NC(=O)[C@@H](NC(=O)[C@H](CCCCN)NC(=O)[C@H](CC(C)C)NC(=O)[C@H](CC(N)=O)NC(C)=O)CCC(=O)NCCCC[C@@H](C(=O)N[C@H](C(=O)N[C@H](C(=O)N[C@@H](CCCCN)C(=O)N[C@@H](CC(C)C)C(=O)N[C@@H](CCCCN)C(=O)N[C@@H](CC(=O)O)C(=O)N[C@@H](CCC(=O)O)C(N)=O)C(C)C)C(C)C)NC(=O)[C@H](CCCCN)NC1=O) [Compound 157] | 0.02 | 0.02 | 0 | 0 | – | – | – | –
2 | Ac-(cyclo-5,9)-NLKQ[EIKHK]VKLKDE-NH2 (Ac-NLKQEIKHKVKLKDE-NH2; lactam 5-9; SMILES CC[C@H](C)[C@@H]1NC(=O)[C@@H](NC(=O)[C@H](CCC(N)=O)NC(=O)[C@H](CCCCN)NC(=O)[C@H](CC(C)C)NC(=O)[C@H](CC(N)=O)NC(C)=O)CCC(=O)NCCCC[C@@H](C(=O)N[C@H](C(=O)N[C@@H](CCCCN)C(=O)N[C@@H](CC(C)C)C(=O)N[C@@H](CCCCN)C(=O)N[C@@H](CC(=O)O)C(=O)N[C@@H](CCC(=O)O)C(N)=O)C(C)C)NC(=O)[C@H](Cc2c[nH]cn2)NC(=O)[C@H](CCCCN)NC1=O) [Compound 158] | 0.005 | 0.005 | 0 | 43 | significantly inhibit cell migration | – | – | –
3 | Ac-(cyclo-6,10)-NLKQK[EKHVK]KLKDE-NH2 (Ac-NLKQKEKHVKKLKDE-NH2; lactam 6-10; SMILES CC(=O)N[C@@H](CC(N)=O)C(=O)N[C@@H](CC(C)C)C(=O)N[C@@H](CCCCN)C(=O)N[C@@H](CCC(N)=O)C(=O)N[C@@H](CCCCN)C(=O)N[C@H]1CCC(=O)NCCCC[C@@H](C(=O)N[C@@H](CCCCN)C(=O)N[C@@H](CC(C)C)C(=O)N[C@@H](CCCCN)C(=O)N[C@@H](CC(=O)O)C(=O)N[C@@H](CCC(=O)O)C(N)=O)NC(=O)[C@H](C(C)C)NC(=O)[C@H](Cc2c[nH]cn2)NC(=O)[C@H](CCCCN)NC1=O) [Compound 159] | 0.009 | 0.009 | 0 | 0 | – | – | – | –
4 | Ac-(cyclo-7,11)-NLKQKI[EHVVK]LKDE-NH2 (Ac-NLKQKIEHVVKLKDE-NH2; lactam 7-11; SMILES CC[C@H](C)[C@H](NC(=O)[C@H](CCCCN)NC(=O)[C@H](CCC(N)=O)NC(=O)[C@H](CCCCN)NC(=O)[C@H](CC(C)C)NC(=O)[C@H](CC(N)=O)NC(C)=O)C(=O)N[C@H]1CCC(=O)NCCCC[C@@H](C(=O)N[C@@H](CC(C)C)C(=O)N[C@@H](CCCCN)C(=O)N[C@@H](CC(=O)O)C(=O)N[C@@H](CCC(=O)O)C(N)=O)NC(=O)[C@H](C(C)C)NC(=O)[C@H](C(C)C)NC(=O)[C@H](Cc2c[nH]cn2)NC1=O) [Compound 160] | 0.004 | 0.004 | 0 | 0 | – | – | – | –

The next lines start with results.

Row | HA binding [2] | HA direct binding (OD) [2] [OD] | Substance | Inflammation (% Inhib.) [1] [% Inhib.] | Migration (% inhib.) [3] [% inhib.] | inhibition of cell migration (in words) [3] | Invasion (% inhib.) [4] [% inhib.] | inhibition of cellular invasion (in words) ([4]; 10 ng/mL peptide, 20 hours, compared to 30% serum control) | inhibition of inflammation (SEAP / NF-κB activity, in words) ([1]; 10 ng/mL peptide with 200 ng/mL PAM3CSK4, 18 hours, compared to +PAM3)
5 | 0.01 | 0.01 | Ac-(cyclo-5,9)-VSKL[ESQLK]KRKQN-NH2 (Ac-VSKLESQLKKRKQN-NH2; lactam 5-9; SMILES CC(=O)N[C@H](C(=O)N[C@@H](CO)C(=O)N[C@@H](CCCCN)C(=O)N[C@@H](CC(C)C)C(=O)N[C@H]1CCC(=O)NCCCC[C@@H](C(=O)N[C@@H](CCCCN)C(=O)N[C@@H](CCCNC(=N)N)C(=O)N[C@@H](CCCCN)C(=O)N[C@@H](CCC(N)=O)C(=O)N[C@@H](CC(N)=O)C(N)=O)NC(=O)[C@H](CC(C)C)NC(=O)[C@H](CCC(N)=O)NC(=O)[C@H](CO)NC1=O)C(C)C) [Compound 151] | – | 59 | significantly inhibit cell migration | 0 | – | –
6 | 0.08 | 0.08 | Ac-(cyclo-7,11)-VSKLRS[ELVKK]KQN-NH2 (Ac-VSKLRSELVKKKQN-NH2; lactam 7-11; SMILES CC(=O)N[C@H](C(=O)N[C@@H](CO)C(=O)N[C@@H](CCCCN)C(=O)N[C@@H](CC(C)C)C(=O)N[C@@H](CCCNC(=N)N)C(=O)N[C@@H](CO)C(=O)N[C@H]1CCC(=O)NCCCC[C@@H](C(=O)N[C@@H](CCCCN)C(=O)N[C@@H](CCC(N)=O)C(=O)N[C@@H](CC(N)=O)C(N)=O)NC(=O)[C@H](CCCCN)NC(=O)[C@H](C(C)C)NC(=O)[C@H](CC(C)C)NC1=O)C(C)C) [Compound 153] | – | 0 | – | 58 | significantly inhibited cellular invasion | –
7 | 0.009 | 0.009 | Ac-(cyclo-8,12)-NLKQKIK[EVVKK]KDE-NH2 (Ac-NLKQKIKEVVKKKDE-NH2; lactam 8-12; SMILES CC[C@H](C)[C@H](NC(=O)[C@H](CCCCN)NC(=O)[C@H](CCC(N)=O)NC(=O)[C@H](CCCCN)NC(=O)[C@H](CC(C)C)NC(=O)[C@H](CC(N)=O)NC(C)=O)C(=O)N[C@@H](CCCCN)C(=O)N[C@H]1CCC(=O)NCCCC[C@@H](C(=O)N[C@@H](CCCCN)C(=O)N[C@@H](CC(=O)O)C(=O)N[C@@H](CCC(=O)O)C(N)=O)NC(=O)[C@H](CCCCN)NC(=O)[C@H](C(C)C)NC(=O)[C@H](C(C)C)NC1=O) [Compound 161] | 6 | 36 | significantly inhibit cell migration | – | – | significantly inhibited inflammation
